{"source": "patent US20260309717A1", "about": "“PROXIMITY INDUCING SYSTEM AND USES THEREOF” (SORBONNE UNIVERSITE, priority 2022, published 2026)", "assay_type_in_all_cases": "cell-based", "key": {"[1]": {"system": "mCherry-FKBP-^FIREtag / TOM20-^FIREmate / FRB-ECFP-Giantin", "experiment": "Orthogonality with FRB-FKBP-rapamycin CIP system, confocal microscopy, HeLa cells", "settings": "simultaneous addition of 10 μM HBR-2,5DM and 500 nM rapamycin", "method": "FIG. 12A is a representation of the experimental design wherein HeLa cells co-expressing mCherry-FKBP-^FIREtag, TOM20-^FIREmate and FRB-ECFP-Giantin were treated with 10 μM of match (i.e., HBR-2,5DM) and 500 nM rapamycin, and imaged by time-lapse confocal microscopy. FIG. 12B is a set of representative confocal micrographs of cells before and after addition of HBR-2,5DM (match1) and rapamycin (rap) (mCherry: ex/em 561/606-675 nm; FIRE: ex/em 488/508-570 nm; ECFP: ex/em 445/455-499 nm). Scale bars are 20 μm.\n(§1) The confocal micrographs were acquired on a Zeiss LSM 980 Laser Scanning Microscope equipped with a plan apochromat 63x/1.4 NA oil immersion objective. ZEN software was used to collect the data. The images were analyzed using Icy (2.4.0.0) and Fiji (Image J). In short, to track fluorescence signal in a specific organelle, a ROI (region of interest) was determined by masking the signal in the ECFP (Enhanced Cyan Fluorescent Protein) channel with the plug-in HK-means with the following parameters: intensity class equals 100, minimum object size (pixels or px) equals 500, maximum object size (px) equals 1500-3000. The signal intensity of the ROI was tracked over time for each channel by using plug-in Active Contours. The background signal was subtracted. Data were processed using GraphPad Prism v9.3.0. […]"}, "[2]": {"target": "T1, mCherry-caged^FIREtag / ^FIREmate-ECFP-Giantin (Halorhodospira halophila, UniProt P16113, A30V/C69G/D97P/F96I, form not given/G21E/G25R/K17N/M100R/M109L/Q41L/Q99S/S72T/T101G/V83A/Y94W/Y98T)", "T1 construct": "mCherry-caged FIREtag (PYP 2-114 C69G cage) and FIREmate-ECFP-Giantin in HeLa cells", "T1 sequence (P16113 1-114 A30V/C69G/D97P/F96I/G21E/G25R/K17N/M100R/M109L/Q41L/Q99S/S72T/T101G/V83A/Y94W/Y98T)": "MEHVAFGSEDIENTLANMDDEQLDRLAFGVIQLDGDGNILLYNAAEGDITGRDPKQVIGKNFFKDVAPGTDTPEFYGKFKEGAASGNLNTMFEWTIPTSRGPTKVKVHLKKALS", "experiment": "Recruitment of mCherry-caged^FIREtag to the Golgi, confocal microscopy, HeLa cells", "settings": "10 μM", "method": "FIGS. 11A-C illustrate the use of a caged proximity inducing system as described herein. FIG. 11A is a representation of the experimental design wherein HeLa cells co-expressing mCherry-caged^FIREtag and ^FIREmate-ECFP-Giantin were treated with 10 μM of match (i.e., HBR-2,5DM), and imaged by time-lapse confocal microscopy. FIG. 11B is a graph showing the temporal evolution of the FIRE signal detected upon addition of HBR-2,5DM at 0 min, either with ^FIREtag or with caged^FIREtag. Data represents the mean values±SD of 7 cells from n=3 independent experiments. FIG. 11C is a set of representative confocal micrographs of cells before (0 min) and after (9 min) addition of HBR-2,5DM (match1) (mCherry: ex/em 561/606-675 nm; FIRE: ex/em 488/508-570 nm; ECFP: ex/em 445/455-499 nm). […] Scale bars are 20 μm.\nas §1, with “ZEN software was used to collect the data.” left out, “1500-3000.” for “1500-3000. The signal intensity of the ROI was tracked over time for each channel by using plug-in Active Contours. The background signal was subtracted. Data were processed using GraphPad Prism v9.3.0.”"}, "[3]": {"target": "T2, mCherry-^FIREtag / ^FIREmate-ECFP-Cb5 (Halorhodospira halophila, UniProt P16113, A30V/C69G/D97P/F96I, form not given/G21E/G25R/K17N/M100R/M109L/Q41L/Q99S/S72T/T101G/V83A/Y94W/Y98T)", "T2 construct": "FIREmate-ECFP-Cb5(100-134) and mCherry-FIREtag in HeLa cells", "T2 sequence (P16113 1-114 A30V/C69G/D97P/F96I/G21E/G25R/K17N/M100R/M109L/Q41L/Q99S/S72T/T101G/V83A/Y94W/Y98T)": "T1 sequence (P16113 1-114 A30V/C69G/D97P/F96I/G21E/G25R/K17N/M100R/M109L/Q41L/Q99S/S72T/T101G/V83A/Y94W/Y98T)", "experiment": "Recruitment of cytoplasmic protein to the endoplasmic reticulum, HeLa cells", "settings": "10 μM", "method": "FIGS. 7A-E illustrate the recruitment of cytoplasmic proteins to the endoplasmic reticulum with the proximity inducing system described herein. FIG. 7A is a representation of the experimental design wherein HeLa cells co-expressing mCherry-^FIREtag and ^FIREmate-ECFP-Cb5 were treated with 10 μM of match (either HBR-2,5DM or HMBR), and imaged by time-lapse confocal microscopy. FIGS. 7B-C are graphs showing the temporal evolution of the FIRE signal detected upon addition at 0 min of HBR-2,5DM (match1-7C) or HMBR (match2-7D). Data represents the mean values±SD of 17 cells from n=3 independent experiments (7B, D), or of 18 cells from n=3 independent experiments (7C, E). FIGS. 7D-E are sets of representative confocal micrographs of cells before (0 min) and after (5 min) addition of HBR-2,5DM (match1-7D) or HMBR (match2-7E) (mCherry: ex/em 561/606-675 nm; FIRE: ex/em 488/508-570 nm; ECFP: ex/em 445/455-499 nm). […] Scale bars are 20 μm.\nThe confocal micrographs were acquired on a Zeiss LSM 980 Laser Scanning Microscope equipped with a plan apochromat 63x/1.4 NA oil immersion objective. ZEN software was used to collect the data. The images were analyzed using Icy (2.4.0.0) and Fiji (Image J). In short, to track fluorescence signal in a specific organelle, a ROI (region of interest) was determined by masking the signal in the ECFP (Enhanced Cyan Fluorescent Protein) channel with the plug-in HK-means with the following parameters: intensity class equals 100, minimum object size (pixels or px) equals 500, maximum object size (px) equals 1500-3000. The signal intensity of the ROI was tracked over time for each channel by using plug-in Active Contours. The background signal was subtracted. Data were processed using GraphPad Prism v9.3.0.\nTo further evaluate the scope of the proximity inducing system described herein and show its versatility, ^FIREmate was anchored at the membrane of various organelles or cellular structures so that ^FIREmate faced the cytosol. ^FIREmate was thus fused: • to the N-terminus of the transmembrane domain (amino acid residues at positions 3131-3259) of Giantin for location at the cis-medial rims of the Golgi apparatus (FIG. 6A), • to the N-terminus of the transmembrane domain (amino acid residues at positions 100-134) of the cytochrome b5 (Cb5) for location at the endoplasmic reticulum membrane (FIG. 7A), and • to the C-terminus of the Lyn11 inner membrane targeting sequence for location at the plasma membrane (FIG. 8A).\nFor each construct, an ECFP was inserted between ^FIREmate and the other protein domain/sequence to monitor the localization of the resulting fusion protein (blue fluorescence). Each fusion protein was co-expressed in mammalian cells (HeLa cells or HEK293 cells as indicated) together with mCherry-^FIREtag (red fluorescence). […]"}}}
{"smiles": "Cc1cc(/C=C2\\SC(=S)NC2=O)c(C)cc1O", "note": "[HBR-2,5DM, (Z)-5-(4-hydroxy-2,5-dimethylbenzylidene)-2-thioxo-1,3-thiazolidin-4-one]", "values": [{"measurement": "translocation of mCherry-FKBP-^FIREtag", "setting": "[1]", "value": "triggered the translocation of mCherry-FKBP-^FIREtag to the Golgi apparatus and to the mitochondria"}, {"measurement": "kinetics of ternary assembly formation with caged^FIREtag, compared to ^FIREtag", "setting": "[2]", "value": "slower kinetics"}, {"measurement": "recruitment of mCherry-caged^FIREtag to the Golgi", "setting": "[2]; 9 min", "value": "efficient recruitment of mCherry-caged^FIREtag to the Golgi"}, {"measurement": "FIRE signal at the endoplasmic reticulum", "setting": "[3]", "value": "simultaneous appearance of green fluorescence"}, {"measurement": "translocation of mCherry-^FIREtag to the endoplasmic reticulum", "setting": "[3]", "value": "rapid translocation of mCherry-^FIREtag to the organelle"}]}
